Key:
[1] = biological target: NACHT, LRR and PYD domains-containing protein 3 (Mus musculus) (UniProt Q8R4B8); experiment: Inhibition of NLRP3 inflammasome activation in LPS-stimulated mouse J774.A1 cells assessed as reduction in pyroptosis at 10 uM pretreated for 4 hrs with LPS and for 30 mins with compound prior to ATP addition and measured after 30 mins by PI/Hoechst33342 staining based analysis; assay type: cell-based; conditions: time 60.0 min
[2] = Cytotoxicity against human L02 cells assessed as reduction in cell viability incubated for 24 hrs by MTT assay; assay type: toxicity, cell-based
[3] = biological target: NACHT, LRR and PYD domains-containing protein 3 (Mus musculus, UniProt Q8R4B8); experiment: Inhibition of NLRP3 inflammasome activation in LPS/nigericin-treated C57BL/6 mouse bone marrow-derived macrophages assessed as reduction in IL-1beta secretion preincubated for 3 hrs with LPS and for 30 mins with compound prior to nigericin addition and measured after 30 mins by ELISA; assay type: cell-based, BMDM
[4] = Metabolic stability in human liver microsomes assessed as half life by LC-MS/MS analysis; assay type: ADME, Microsome
[5] = Metabolic stability in human liver microsomes assessed as intrinsic clearance by LC-MS/MS analysis; assay type: ADME, Microsome; conditions: read-out: CLH
[6] = Metabolic stability in human hepatocytes assessed as intrinsic clearance by LC-MS/MS analysis; assay type: ADME, cell-based, Hepatocyte; conditions: read-out: CLH

NACHT, LRR and PYD domains-containing protein 3 (Mus musculus), sequence (Q8R4B8 whole entry, the tested form may be a part): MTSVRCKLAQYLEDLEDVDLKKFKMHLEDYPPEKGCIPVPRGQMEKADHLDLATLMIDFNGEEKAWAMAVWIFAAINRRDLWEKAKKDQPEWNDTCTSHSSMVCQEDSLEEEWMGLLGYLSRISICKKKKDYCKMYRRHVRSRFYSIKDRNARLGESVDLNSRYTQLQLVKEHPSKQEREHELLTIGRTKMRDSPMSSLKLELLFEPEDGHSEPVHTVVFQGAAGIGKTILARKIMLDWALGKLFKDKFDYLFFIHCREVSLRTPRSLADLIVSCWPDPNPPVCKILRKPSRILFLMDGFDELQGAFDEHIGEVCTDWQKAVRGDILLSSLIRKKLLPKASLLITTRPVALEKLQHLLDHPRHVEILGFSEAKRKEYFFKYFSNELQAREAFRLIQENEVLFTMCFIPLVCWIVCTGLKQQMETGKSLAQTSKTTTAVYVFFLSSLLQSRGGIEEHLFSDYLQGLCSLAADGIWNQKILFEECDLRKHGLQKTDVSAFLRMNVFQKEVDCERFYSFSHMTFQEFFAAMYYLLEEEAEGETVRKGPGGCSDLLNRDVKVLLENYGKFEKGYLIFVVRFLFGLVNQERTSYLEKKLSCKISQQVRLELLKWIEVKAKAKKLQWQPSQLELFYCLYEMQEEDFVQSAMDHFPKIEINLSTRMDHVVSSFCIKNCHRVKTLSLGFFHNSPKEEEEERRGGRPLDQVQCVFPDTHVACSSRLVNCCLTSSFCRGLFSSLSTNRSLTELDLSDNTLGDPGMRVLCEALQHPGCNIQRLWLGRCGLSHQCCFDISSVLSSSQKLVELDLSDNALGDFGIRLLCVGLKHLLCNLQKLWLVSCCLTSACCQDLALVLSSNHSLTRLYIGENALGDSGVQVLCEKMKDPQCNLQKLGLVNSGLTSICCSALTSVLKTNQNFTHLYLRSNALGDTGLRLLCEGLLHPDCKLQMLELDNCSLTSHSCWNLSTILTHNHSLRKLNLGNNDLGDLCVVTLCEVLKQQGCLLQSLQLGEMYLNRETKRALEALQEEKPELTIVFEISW
NACHT, LRR and PYD domains-containing protein 3, sequence (Q8R4B8 whole entry, the tested form may be a part): as above

O=[N+]([O-])/C=C/c1ccc2c(c1)OCO2
inhibition [1]: 75.1%
IC50 at 24 h [2]: 39.2 µM

COc1cc(/C=C/c2ccc(NC(=O)c3ccc(Br)cc3)cc2)c(/C=C/[N+](=O)[O-])c(OC)c1
inhibition [1]: 46.2%
IC50 at 24 h [2]: > 100 µM

COc1cc(/C=C/c2ccc(NC(=O)C3CCCO3)cc2)c(/C=C/[N+](=O)[O-])c(OC)c1 (centres undefined)
inhibition [1]: 65.2%
IC50 at 24 h [2]: > 100 µM

COc1cc(/C=C/c2ccc(NC(=O)/C=C/c3ccccc3)cc2)c(/C=C/[N+](=O)[O-])c(OC)c1
inhibition [1]: 30.7%
IC50 at 24 h [2]: > 100 µM
IC50 [3]: > 10 µM

CCc1ccc(C(=O)Nc2ccc(/C=C/c3cc(OC)cc(OC)c3/C=C/[N+](=O)[O-])cc2)cc1
inhibition [1]: 39%
IC50 at 24 h [2]: > 100 µM

CCOc1ccc(C(=O)Nc2ccc(/C=C/c3cc(OC)cc(OC)c3/C=C/[N+](=O)[O-])cc2)cc1
inhibition [1]: 39.9%
IC50 at 24 h [2]: > 100 µM

COc1cc(/C=C/c2ccc(NC(=O)c3ccccc3F)cc2)c(/C=C/[N+](=O)[O-])c(OC)c1
inhibition [1]: 38.9%
IC50 at 24 h [2]: > 100 µM

COc1ccc(C(=O)Nc2ccc(/C=C/c3cc(OC)cc(OC)c3/C=C/[N+](=O)[O-])cc2)cc1
inhibition [1]: 41%
IC50 at 24 h [2]: > 100 µM
IC50 [3]: > 10 µM

COc1cc(/C=C/c2ccc(NC(=O)COc3ccccc3)cc2)c(/C=C/[N+](=O)[O-])c(OC)c1
inhibition [1]: 7.5%
IC50 at 24 h [2]: > 100 µM

COc1cc(/C=C/c2ccc(NC(=O)c3ccccc3OC)cc2)c(/C=C/[N+](=O)[O-])c(OC)c1
inhibition [1]: 31%
IC50 at 24 h [2]: > 100 µM

C=C1C(=O)[C@]23[C@H](O)[C@H]1CC[C@H]2[C@@]12CO[C@]3(O)[C@@H](O)[C@@H]1C(C)(C)CC[C@@H]2O [ORIDONIN]
inhibition [1]: 73.8%
IC50 at 24 h [2]: 42.2 µM

COc1cc(/C=C/c2ccc(NC(=O)c3cccc(Cl)c3)cc2)c(/C=C/[N+](=O)[O-])c(OC)c1
inhibition [1]: 24%
IC50 at 24 h [2]: > 100 µM

COc1cc(/C=C/c2ccc(NC(=O)c3cccc4ccccc34)cc2)c(/C=C/[N+](=O)[O-])c(OC)c1
inhibition [1]: 4.62%
IC50 at 24 h [2]: > 100 µM

COc1cc(/C=C/c2ccc(NC(=O)C(C)(C)C)cc2)c(/C=C/[N+](=O)[O-])c(OC)c1
inhibition [1]: 52.7%
IC50 at 24 h [2]: > 100 µM

COc1cc(/C=C/c2ccc(NC(=O)c3cccc(F)c3)cc2)c(/C=C/[N+](=O)[O-])c(OC)c1
inhibition [1]: 39.9%
IC50 at 24 h [2]: > 100 µM

COc1cc(/C=C/c2ccc(NC(=O)c3ccc(C)o3)cc2)c(/C=C/[N+](=O)[O-])c(OC)c1
inhibition [1]: 69.5%
IC50 at 24 h [2]: > 100 µM

COc1cccc(C(=O)Nc2ccc(/C=C/c3cc(OC)cc(OC)c3/C=C/[N+](=O)[O-])cc2)c1
inhibition [1]: 24%
IC50 at 24 h [2]: > 100 µM

COc1cc(/C=C/c2ccc(NC(=O)c3ccoc3)cc2)c(/C=C/[N+](=O)[O-])c(OC)c1
inhibition [1]: 64.2%
IC50 at 24 h [2]: > 100 µM

COc1cc(/C=C/c2ccc(NC(=O)c3ccc(Cl)cc3)cc2)c(/C=C/[N+](=O)[O-])c(OC)c1
inhibition [1]: 50%
IC50 at 24 h [2]: > 100 µM

COc1cc(/C=C/c2ccc(NC(=O)c3ccccc3Br)cc2)c(/C=C/[N+](=O)[O-])c(OC)c1
inhibition [1]: 36%
IC50 at 24 h [2]: > 100 µM
IC50 [3]: > 10 µM

COc1cc(/C=C/c2ccc(NC(=O)c3ccc(F)cc3)cc2)c(/C=C/[N+](=O)[O-])c(OC)c1
inhibition [1]: 44%
IC50 at 24 h [2]: > 100 µM
IC50 [3]: 9.34 µM

COc1cc(/C=C/c2ccc(NC(=O)c3cc4ccccc4o3)cc2)c(/C=C/[N+](=O)[O-])c(OC)c1
inhibition [1]: 6.47%
IC50 at 24 h [2]: > 100 µM

COc1cc(/C=C/c2ccc(NC(=O)c3ccccc3C)cc2)c(/C=C/[N+](=O)[O-])c(OC)c1
inhibition [1]: 39%
IC50 at 24 h [2]: > 100 µM

COc1cc(/C=C/c2ccc(NC(=O)c3cccc(C)c3)cc2)c(/C=C/[N+](=O)[O-])c(OC)c1
inhibition [1]: 39.9%
IC50 at 24 h [2]: > 100 µM

COc1cc(/C=C/c2ccc(NC(=O)c3ccc4ccccc4c3)cc2)c(/C=C/[N+](=O)[O-])c(OC)c1
inhibition [1]: 57.2%
IC50 at 24 h [2]: 131 µM
IC50 [3]: > 10 µM

COc1cc(/C=C/c2ccc(NC(=O)c3ccccc3)cc2)c(/C=C/[N+](=O)[O-])c(OC)c1
inhibition [1]: 72.2%
IC50 at 24 h [2]: > 100 µM
IC50 [3]: 1.56 µM

COc1cc(/C=C/c2ccc(NC(=O)c3cccs3)cc2)c(/C=C/[N+](=O)[O-])c(OC)c1
inhibition [1]: 66%
IC50 at 24 h [2]: > 100 µM
IC50 [3]: 2.15 µM

COc1cc(/C=C/c2ccc(NC(=O)c3ccc(C)cc3)cc2)c(/C=C/[N+](=O)[O-])c(OC)c1
inhibition [1]: 28.6%
IC50 at 24 h [2]: > 100 µM

COc1cc(/C=C/c2ccc(NC(=O)c3ccccc3Cl)cc2)c(/C=C/[N+](=O)[O-])c(OC)c1
inhibition [1]: 28.9%
IC50 at 24 h [2]: > 100 µM

COc1cc(/C=C/c2ccc(NC(=O)C3CC3)cc2)c(/C=C/[N+](=O)[O-])c(OC)c1
half-life [4]: 59.7 min
microsomal CLint [5]: 23.2 µL/min/mg
CLint scaled [6]: 11.7 mL/min/kg

COc1cc(/C=C/c2ccc(NC(=O)c3ccccn3)cc2)c(/C=C/[N+](=O)[O-])c(OC)c1
inhibition [1]: 60%
IC50 at 24 h [2]: > 100 µM

COc1cc(/C=C/c2ccc(NC(=O)c3ccc(I)cc3)cc2)c(/C=C/[N+](=O)[O-])c(OC)c1
inhibition [1]: 30.7%
IC50 at 24 h [2]: > 100 µM

COc1cc(/C=C/c2ccc(NC(=O)c3cccc(Br)c3)cc2)c(/C=C/[N+](=O)[O-])c(OC)c1
inhibition [1]: 20.1%
IC50 at 24 h [2]: > 100 µM
